In PubChem BioAssay AID248 (DTP/NCI, 2004):
Several values for one entry are separate records, joined by “and”; a condition that tells them apart may be missing. Identical values can stand only once. Toxic doses and inconclusive results are not listed.

System: L1210 leukemia ip in BDF1 mice, survival T/C
Test: NCI In Vivo Anticancer Drug Screen. Data for tumor model L1210 Leukemia (intraperitoneal) in B6D2F1 (BDF1) mice
Conditions: endpoint: mean survival time, higher = longer survival
In short: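 In this screen, tumor-bearing mice given compound are compared to those given vehicle, and their survival values are reported as a treated-to-control quotient.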

[1] = dose: 100.0 mg/kg/injection, schedule: Q01DX009 (ip), vehicle: saline with Tween-80
[2] = dose: 200.0 mg/kg/injection, schedule: Q01DX009 (ip), vehicle: saline with Tween-80

NC(=S)N/N=C/c1ncccc1O
T/C (dose: 1.8 mg/kg/injection, schedule: Q01DX Z (ip), vehicle: saline): 111 % of control | T/C (dose: 2.7 mg/kg/injection, schedule: Q01DX Z (ip), vehicle: saline): 113 % of control | T/C (dose: 4.1 mg/kg/injection, schedule: Q01DX Z (ip), vehicle: saline): 118 % of control | T/C (dose: 6.25 mg/kg/injection, schedule: Q01DX015 (ip), vehicle: saline): 122 % of control | T/C (dose: 6.25 mg/kg/injection, schedule: Q01DX Z (ip), vehicle: saline): 120 % of control | T/C (dose: 12.5 mg/kg/injection, schedule: Q01DX Z (ip), vehicle: saline): 153 % of control | T/C (dose: 21.0 mg/kg/injection, schedule: Q03HX032 (ip), vehicle: saline with Tween-80): 119 % of control | T/C (dose: 25.0 mg/kg/injection, schedule: Q01DX015 (ip), vehicle: saline): 150 % of control | T/C (dose: 25.0 mg/kg/injection, schedule: Q01DX Z (ip), vehicle: saline): 159 % of control | T/C (dose: 47.0 mg/kg/injection, schedule: Q03HX032 (ip), vehicle: saline with Tween-80): 120 % of control | T/C (dose: 50.0 mg/kg/injection, schedule: Q01DX Z (ip), vehicle: saline): 170 % of control | T/C (dose: 100.0 mg/kg/injection, schedule: Q01DX015 (ip), vehicle: saline): 111 % of control | T/C (dose: 100.0 mg/kg/injection, schedule: Q01DX Z (ip), vehicle: saline): 165 % of control | T/C (dose: 100.0 mg/kg/injection, schedule: Q01DX Z (oral), vehicle: saline): 112 % of control | T/C (dose: 150.0 mg/kg/injection, schedule: Q01DX Z (ip), vehicle: saline): 153 % of control | T/C (dose: 200.0 mg/kg/injection, schedule: Q01DX015 (ip), vehicle: saline): 94 % of control | T/C (dose: 335.0 mg/kg/injection, schedule: Q01DX Z (ip), vehicle: saline): 118 % of control | T/C (dose: 335.0 mg/kg/injection, schedule: Q01DX Z (oral), vehicle: saline): 115 % of control | T/C (dose: 400.0 mg/kg/injection, schedule: Q01DX015 (ip), vehicle: saline): 90 % of control

NC(=O)c1ccc(NC(=O)/C=C/C(=O)Nc2ccc(C(N)=O)cn2)nc1
T/C (dose: 1.0 mg/kg/injection, schedule: Q01DX001 (ip), vehicle: saline): 100 % of control | T/C (dose: 1.0 mg/kg/injection, schedule: Q01DX Z (ip), vehicle: saline): 101 % of control and 105 % of control and 113 % of control | T/C (dose: 2.0 mg/kg/injection, schedule: Q01DX001 (ip), vehicle: saline): 100 % of control | T/C (dose: 2.0 mg/kg/injection, schedule: Q01DX Z (ip), vehicle: saline): 87 % of control | T/C (dose: 4.0 mg/kg/injection, schedule: Q01DX001 (ip), vehicle: saline): 100 % of control | T/C (dose: 4.0 mg/kg/injection, schedule: Q01DX Z (ip), vehicle: saline): 99 % of control | T/C (dose: 5.0 mg/kg/injection, schedule: Q01DX001 (ip), vehicle: saline): 107 % of control | T/C (dose: 5.0 mg/kg/injection, schedule: Q04DX003 (ip), vehicle: saline): 107 % of control | T/C (dose: 8.0 mg/kg/injection, schedule: Q01DX001 (ip), vehicle: saline): 102 % of control | T/C (dose: 8.0 mg/kg/injection, schedule: Q01DX Z (ip), vehicle: saline): 107 % of control and 91 % of control | T/C (dose: 10.0 mg/kg/injection, schedule: Q01DX001 (ip), vehicle: saline): 98 % of control | T/C (dose: 11.25 mg/kg/injection, schedule: Q01DX009 (ip), vehicle: saline): 93 % of control | T/C (dose: 13.0 mg/kg/injection, schedule: Q04DX003 (ip), vehicle: acetone): 104 % of control | T/C (dose: 13.0 mg/kg/injection, schedule: Q04DX003 (ip), vehicle: saline): 109 % of control | T/C (dose: 20.0 mg/kg/injection, schedule: Q01DX001 (ip), vehicle: saline): 104 % of control | T/C (dose: 20.0 mg/kg/injection, schedule: Q04DX003 (ip), vehicle: acetone): 109 % of control | T/C (dose: 20.0 mg/kg/injection, schedule: Q04DX003 (ip), vehicle: saline): 109 % of control | T/C (dose: 30.0 mg/kg/injection, schedule: Q04DX003 (ip), vehicle: acetone): 98 % of control | T/C (dose: 30.0 mg/kg/injection, schedule: Q04DX003 (ip), vehicle: saline): 109 % of control | T/C (dose: 45.0 mg/kg/injection, schedule: Q04DX003 (ip), vehicle: saline): 88 % of control

N#[N+]c1c(C(=O)O)[nH]c(=O)[nH]c1=O
T/C (dose: 6.25 mg/kg/injection, schedule: Q01DX009 (ip), vehicle: saline): 99 % of control | T/C (dose: 10.0 mg/kg/injection, schedule: Q01DX001 (ip), vehicle: carboxymethylcellulose (CMC)): 92 % of control | T/C (dose: 12.5 mg/kg/injection, schedule: Q01DX009 (ip), vehicle: saline with Tween-80): 98 % of control | T/C (dose: 12.5 mg/kg/injection, schedule: Q01DX009 (ip), vehicle: saline): 96 % of control | T/C (dose: 12.5 mg/kg/injection, schedule: Q01DX Z (ip), vehicle: methylcellulose (MC)): 94 % of control | T/C (dose: 20.0 mg/kg/injection, schedule: Q01DX001 (ip), vehicle: carboxymethylcellulose (CMC)): 95 % of control | T/C (dose: 20.0 mg/kg/injection, schedule: Q01DX009 (ip), vehicle: carboxymethylcellulose (CMC)): 96 % of control | T/C (dose: 25.0 mg/kg/injection, schedule: Q01DX009 (ip), vehicle: saline with Tween-80): 102 % of control | T/C (dose: 25.0 mg/kg/injection, schedule: Q01DX009 (ip), vehicle: saline): 98 % of control | T/C (dose: 25.0 mg/kg/injection, schedule: Q01DX Z (ip), vehicle: methylcellulose (MC)): 101 % of control | T/C (dose: 40.0 mg/kg/injection, schedule: Q01DX001 (ip), vehicle: carboxymethylcellulose (CMC)): 104 % of control | T/C (dose: 40.0 mg/kg/injection, schedule: Q01DX009 (ip), vehicle: carboxymethylcellulose (CMC)): 108 % of control | T/C (dose: 50.0 mg/kg/injection, schedule: Q01DX009 (ip), vehicle: saline with Tween-80): 95 % of control and 92 % of control | T/C (dose: 50.0 mg/kg/injection, schedule: Q01DX009 (ip), vehicle: saline): 99 % of control | T/C (dose: 50.0 mg/kg/injection, schedule: Q01DX Z (ip), vehicle: carboxymethylcellulose (CMC)): 155 % of control | T/C (dose: 50.0 mg/kg/injection, schedule: Q01DX Z (ip), vehicle: methylcellulose (MC)): 121 % of control | T/C (dose: 80.0 mg/kg/injection, schedule: Q01DX001 (ip), vehicle: carboxymethylcellulose (CMC)): 101 % of control | T/C (dose: 80.0 mg/kg/injection, schedule: Q01DX009 (ip), vehicle: carboxymethylcellulose (CMC)): 96 % of control | T/C [1]: 107 % of control and 92 % of control | T/C (dose: 100.0 mg/kg/injection, schedule: Q01DX009 (ip), vehicle: saline): 103 % of control | T/C (dose: 100.0 mg/kg/injection, schedule: Q01DX Z (ip), vehicle: methylcellulose (MC)): 100 % of control | T/C (dose: 100.0 mg/kg/injection, schedule: Q04DX003 (ip), vehicle: saline with Tween-80): 95 % of control | T/C (dose: 150.0 mg/kg/injection, schedule: Q01DX009 (ip), vehicle: saline): 90 % of control | T/C [2]: 97 % of control | T/C (dose: 200.0 mg/kg/injection, schedule: Q04DX003 (ip), vehicle: saline with Tween-80): 97 % of control | T/C (dose: 300.0 mg/kg/injection, schedule: Q01DX009 (ip), vehicle: saline): 101 % of control | T/C (dose: 400.0 mg/kg/injection, schedule: Q04DX003 (ip), vehicle: saline with Tween-80): 103 % of control | T/C (dose: 800.0 mg/kg/injection, schedule: Q04DX003 (ip), vehicle: saline with Tween-80): 97 % of control

COc1ccc(Cl)cc1NS(=O)(=O)c1cccc([N+](=O)[O-])c1
T/C (dose: 100.0 mg/kg/injection, schedule: Q01DX009 (ip), vehicle: Klucel (hydroxypropylcellulose) (HPC)): 96 % of control | T/C (dose: 200.0 mg/kg/injection, schedule: Q01DX009 (ip), vehicle: Klucel (hydroxypropylcellulose) (HPC)): 98 % of control | T/C (dose: 400.0 mg/kg/injection, schedule: Q01DX009 (ip), vehicle: Klucel (hydroxypropylcellulose) (HPC)): 91 % of control

NC(Cc1ccc(OCc2ccccc2)cc1)C(=O)O (centres undefined)
T/C (dose: 100.0 mg/kg/injection, schedule: Q01DX001 (ip), vehicle: saline with Tween-80): 92 % of control | T/C [1]: 95 % of control | T/C (dose: 200.0 mg/kg/injection, schedule: Q01DX001 (ip), vehicle: saline with Tween-80): 89 % of control | T/C [2]: 90 % of control | T/C (dose: 400.0 mg/kg/injection, schedule: Q01DX001 (ip), vehicle: saline with Tween-80): 89 % of control | T/C (dose: 400.0 mg/kg/injection, schedule: Q01DX009 (ip), vehicle: saline with Tween-80): 96 % of control

COc1ccc(C(=O)C(C)CN2CCOCC2)cc1 (centres undefined)
T/C (dose: 100.0 mg/kg/injection, schedule: Q01DX001 (ip), vehicle: saline): 102 % of control | T/C (dose: 200.0 mg/kg/injection, schedule: Q01DX001 (ip), vehicle: saline): 105 % of control | T/C (dose: 400.0 mg/kg/injection, schedule: Q01DX001 (ip), vehicle: saline): 102 % of control
